Among the data in ChEMBL document CHEMBL1123047, “Quantitative evaluation of the beta 2-adrenoceptor affinity of phenoxypropanolamines and phenylethanolamines” (J Med Chem, 1985) are Kd, -Log KD and logP values, retold here.

The target in data set [1] is Beta-2 adrenergic receptor (Bos taurus, UniProt Q28044). The following applies: read-out: Kd app.
Description: (§2) Affinity for cow beta-2 adrenergic receptor by measuring displacement (-)-[3H]dihydroalprenolol (DHA)
In data set [2] the target is Beta-2 adrenergic receptor (Bos taurus) (UniProt Q28044).
Description: as §2
A short description of data set [3]: (§1) Partition coefficient (logP). The following applies: octanol/water.
A short description of data set [4]: as §1. In kind it is physicochemical. The following applies: octanol/water.

Sequence of Beta-2 adrenergic receptor (Q28044 whole entry): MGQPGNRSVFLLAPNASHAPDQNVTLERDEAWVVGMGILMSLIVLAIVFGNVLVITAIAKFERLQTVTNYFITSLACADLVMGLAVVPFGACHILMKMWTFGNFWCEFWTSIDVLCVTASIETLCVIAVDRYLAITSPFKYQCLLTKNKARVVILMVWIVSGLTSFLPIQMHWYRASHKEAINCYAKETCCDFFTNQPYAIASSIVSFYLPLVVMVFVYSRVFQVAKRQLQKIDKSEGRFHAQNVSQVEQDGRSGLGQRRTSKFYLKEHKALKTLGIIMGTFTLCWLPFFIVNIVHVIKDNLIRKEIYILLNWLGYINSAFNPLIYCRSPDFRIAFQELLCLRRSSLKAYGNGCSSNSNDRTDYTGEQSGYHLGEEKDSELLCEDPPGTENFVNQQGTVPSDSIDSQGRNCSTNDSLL
Sequence of Beta-2 adrenergic receptor (Bos taurus) (Q28044 whole entry, looked up): as the sequence (Q28044 whole entry) above

Regarding `CC(C)(C)NCC(O)c1cc(Cl)c(O)c(Cl)c1` (centres undefined), the Kd in data set [1] is 1950 nM. In data set [2], this compound gave a -Log KD of 7.41.
In the case of `OCc1ccccc1O` [SALICYL ALCOHOL], in data set [3], the logP turned out to be 0.73.
For `Cc1cc(C)cc(OCC(O)CNC(C)C)c1` (centres undefined), in data set [1], the Kd is 10.2 nM. Further, the -Log KD in data set [2] is 8.29.
The like results for `CC(C)(C)NCC(O)c1ccc(O)c(O)c1` (centres undefined) [COLTEROL] were, in that order, 600 nM and 6.55.
As for `CC(C)NCC(O)c1ccc(O)cc1` (centres undefined) [DETERENOL], the Kd in data set [1] came out at 4270 nM.
As to `CC(C)NCC(O)COc1ccccc1C#N` (centres undefined), the Kd in data set [1] was determined as 21.9 nM. The compound further came in with a -Log KD in data set [2] of 7.96.
With `CC(C)NCC(O)c1ccc(O)c(CO)c1` (centres undefined), the Kd in data set [1] was found to be 3160 nM. Further, the -Log KD in data set [2] amounted to 5.8.
As for `CC(C)NCC(O)c1ccc(NS(C)(=O)=O)cc1` (centres undefined), the -Log KD in data set [2] came to 6.57.
Consider `Oc1cccc(O)c1` [RESORCINOL], for which the logP in data set [3] stood at 0.8.
`CC(C)(C)NCC(O)c1cc(O)cc(O)c1` (centres undefined) returned a -Log KD in data set [2] of 5.73.
In data set [2], `CC(C)(C)NCC(O)c1ccc(O)c(CO)c1` (centres undefined) came in with a -Log KD of 6.58.
As to `CC(C)(C)NCC(O)c1ccc(O)c(C(N)=O)c1` (centres undefined), the Kd in data set [1] was found to be 470 nM.
Consider `CC(C)(C)NCC(O)c1ccccc1Cl` (centres undefined) [TULOBUTEROL], for which, in data set [1], the Kd was 130 nM.
Turning to `CCC(C)c1cccc(OCC(O)CNC(C)C)c1` (centres undefined), the Kd in data set [1] is 17.8 nM. In data set [2], this compound displayed a -Log KD of 8.05.
As for `CC(C)(C)NCC(O)c1ccc(O)c(N)c1` (centres undefined), the Kd in data set [1] turned out to be 2040 nM. Moreover, the -Log KD in data set [2] was 5.99.
Regarding `CC(C)NCC(O)c1ccc2ccccc2c1` (centres undefined) [PRONETALOL], the Kd in data set [1] turned out to be 160 nM. In data set [2], this compound gave a -Log KD of 7.1.
As for `CC(C)NCC(O)c1ccc([N+](=O)[O-])cc1` (centres undefined) [NIFENALOL], the Kd in data set [1] was 1320 nM.
On to `CC(C)NCC(O)COc1ccccc1` (centres undefined), for which the Kd in data set [1] turned out to be 53.7 nM. Besides, the -Log KD in data set [2] came to 7.57.
`CC(C)NCC(O)COc1ccccc1CO` (centres undefined): in data set [1], the Kd was found to be 50.1 nM. Further, the -Log KD in data set [2] came to 7.6.
As for `CC(C)NCC(O)COc1ccccc1C1CC1` (centres undefined) [PROCINOLOL], the Kd in data set [1] stood at 0.39 nM. Further, in data set [2], the -Log KD was determined as 9.41.
Take `CC(C)NCC(O)c1cc(O)cc(O)c1` (centres undefined) [METAPROTERENOL]: the Kd in data set [1] was found to be 9120 nM.
Take `NC(=O)c1ccccc1O` [SALICYLAMIDE]: the logP in data set [4] is 1.28.
Turning to `CNc1cc(C(O)CNC(C)(C)C)ccc1O` (centres undefined), in data set [1], the Kd is 520 nM.
`CC(C)NCC(O)c1cc(Cl)c(N)c(Cl)c1` (centres undefined): in data set [1], the Kd worked out at 58 nM. The -Log KD in data set [2] was 7.54.
As to `CC(C)NC[C@H](O)COc1ccc(O)cc1` [PRENALTEROL], the Kd in data set [1] came to 1070 nM. The -Log KD in data set [2] was determined as 6.27.
Turning to `CC(C)NCC(O)c1cccc(O)c1` (centres undefined) [METATEROL], the Kd in data set [1] worked out at 910 nM. In data set [2], this compound had a -Log KD of 6.34.
For the compound `CC(C)NCC(O)c1ccc(O)c(N)c1` (centres undefined), in data set [1], the Kd amounted to 5130 nM. In data set [2], the -Log KD worked out at 5.59.
The like results for `Cc1cccc(OCC(O)CNC(C)C)c1` (centres undefined) [TOLIPROLOL] were, in that order, 43.6 nM and 7.66.
Regarding `CC(C)(C)NCC(O)c1ccc(O)cc1` (centres undefined), the Kd in data set [1] was determined as 1260 nM. Further, in data set [2], the -Log KD is 6.2.
`Nc1ccccc1O` [QUESTIOMYCIN B] yielded a logP in data set [3] of 0.52.
For `C#CCOc1ccccc1OCC(O)CNC(C)C` (centres undefined), in data set [1], the Kd is 2.14 nM. In addition, in data set [2], the -Log KD is 8.97.
The like results for `Cc1ccccc1OCC(O)CNC(C)C` (centres undefined) were, in that order, 10.2 nM and 8.29.
`CCCc1ccccc1` registered a logP in data set [3] of 3.57.
Take `CCCc1ccccc1OCC(O)CNC(C)C` (centres undefined): the Kd in data set [1] came out at 0.63 nM. In addition, the -Log KD in data set [2] was determined as 9.2.

What is called logP is a log measure of how a compound divides between an organic and an aqueous phase. High values mean a more lipophilic compound, low ones a more hydrophilic compound.
